We go through two molecules from PubChem BioAssay AID2060888 (Molecular Pharmacology Branch, DTP, NCI, 2025).

Some results are limits rather than exact numbers.

The subject of the assay is 695427-040-R-J1-PDC complex spheroid viability. The experiment in a line: Anticancer human tumor 695427-040-R-J1-PDC patient-derived colon adenocarcinoma cell line growth inhibition [RAS]. The conditions noted are these: for IC50: curve of first compound; for viability, T/C: stronger effect = lower value. The text has this: RAS pathway inhibitors in Combinations in Complex Spheroids
A high-throughput screen of multi-cell type tumor spheroids was designed to identify active combinations of RAS pathway inhibitors and targeted small molecules. Complex spheroids include a stromal component modeled by human endothelial cells (HUVEC) and fibroblasts modeled by human mesenchymal stem cells (MSCs). The concentration ranges selected for each drug and investigational agent were based upon clinically achievable concentrations if the clinical Cmax of the agent was known.
Compounds. The drugs and investigational agents: abemaciclib (NSC768073), cobimetinib (NSC768068), divarasib (GDC6063, NSC841802), docetaxel (NSC628503), GDC-1971 (RLY-1971, NSC841576), gemcitabine (NSC613327), inavolisib (NSC800729), ipatasertib (NSC767898), KB-0742 (NSC834161), MRTX-1133 (NSC836407), osimertinib (NSC779217), RMC-4630 (NSC839698), RMC-6236 (NSC851965), RMC-6291 (NSC852671), Ro-3306 (NSC812927), sapanisertib (NSC764658), SN-38 (NSC673596), staurosporine (NSC755774), SY5609 (NSC837396), and tovorafenib (DAY101, NSC766906), were obtained from the National Cancer Institute (NCI) Developmental Therapeutics Program Chemical Repository. The FDA-approved anticancer drug set is available from the NCI Developmental Therapeutics Program. […] The stock solutions were prepared in dimethyl sulfoxide (DMSO, Sigma-Aldrich, St. Louis, MO, cat. D2650) at 800-fold the tested concentration and stored at -70 degrees C prior to their use. All drugs and investigational agents were tested over a range starting from a high concentration at or near the clinical Cmax and decreasing in half-log increments. If the clinical Cmax for an agent had not been determined, the highest concentration tested was 10 microM.
Cell Culture. All cells were maintained in an incubator at 37 degrees C and 5% CO2 with 95% humidity. The PDC lines were cultured according to standard operating procedures established by the NCI PDMR. All PDCs were thawed and cultured in Matrigel-coated flasks prepared with a working solution of 1X Ham's F-12 nutrient mix, without supplementation (Invitrogen, Waltham, MA, cat. 11765054), 100 U/mL penicillin-streptomycin (Invitrogen, cat. 15140122), and 2.5% Matrigel (Corning Inc., Corning, NY, cat. 354248) for the first three passages. The 362531-283-R-J2-PDC and 782815-120-R-J1-PDC lines were cultured in 6C/Colon 1B media, which includes advanced DMEM/F-12 (Thermo Fisher Scientific, cat. 12634028), 10 mM HEPES (Thermo Fisher Scientific, cat. 15630080), 1X GlutaMAX supplement (Thermo Fisher Scientific, cat. 35050061), 0.1 mg/mL primocin (InvivoGen, San Diego, CA, cat. ant-pm-2), 10% defined fetal bovine serum, heat inactivated (HyClone Laboratories Inc., Logan, UT, cat. SH30070.03HI), 50% L-WRN conditioned media (ATCC, cat. CRL-3276), 1.25 mM N-Acetyl-L-cysteine (Sigma-Aldrich, cat. A9165), 10 mM nicotinamide (Sigma-Aldrich, cat. N0636), 1X B-27 supplement (Thermo Fisher Scientific, cat. 17504044), 1X N-2 supplement (Thermo Fisher Scientific, cat. 17502048), 50 ng/mL human EGF (Thermo Fisher Scientific, cat. PHG0311), and 10 microM Y-27632 dihydrochloride (Tocris Bioscience, cat. 1254). The K12877-001-R-J1-PDC line was cultured in 6I media, which includes all 6C/Colon 1B media plus 10 ng/mL human FGF-10 (PeproTech, cat. 100-26), 1 ng/mL human FGF-2 (PeproTech, cat. 100-18B), 1 µM prostaglandin E2 (Tocris Bioscience, cat. 2296), […] hydrocortisone (Sigma-Aldrich, cat. H4001), and […] bovine insulin (Sigma-Aldrich, cat. I6634). The K86415-001-R-J1-PDC line was cultured in 6D media, which includes all 6C/Colon 1B media components minus the L-WRN conditioned media. The 485176-168-R4-J1-PDC was cultured in PANC media, which includes all 6C/Colon 1B media plus 100 ng/mL human FGF-10 (PeproTech, cat. 100-26), 500 nM SB-431542 (Selleckchem, cat. S1067), and 10 nM gastrin (Tocris Bioscience, cat. 3006). […]
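Note: viability read after seven days of drug exposure.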

Turning to `CC1(O)CCCC1n1c(=O)c(C(F)F)cc2cnc(NC3CCN(S(C)(=O)=O)CC3)nc21` (stereo not drawn) + CCn1c(-c2cc(N3CCN(C)CC3)cnc2C(C)OC)c2c3cc(ccc31)-c1csc(n1)CC(NC(=O)C1CC1C)C(=O)N1CCCC(N1)C(=O)OCC(C)(C)C2, the IC50 by setting is: (second compound 0.000949 µM) over 10 µM; (second compound 0.003 µM) over 10 µM; (second compound 0.00949 µM) over 10 µM; (second compound 0.03 µM) 4.61 µM; (second compound 0.0949 µM) under 0.0316 µM; (second compound 0.3 µM) under 0.0316 µM. Moreover, the viability, T/C runs as follows: (second compound 0.000949 µM, first compound 0.0316 µM) 112%; (second compound 0.000949 µM, first compound 0.1 µM) 74.6%; (second compound 0.000949 µM, first compound 0.316 µM) 93.8%; (second compound 0.000949 µM, first compound 1 µM) 105%; (second compound 0.000949 µM, first compound 3.16 µM) 114%; (second compound 0.000949 µM, first compound 10 µM) 74.5%. Further, the viability, T/C is, setting by setting: (second compound 0.003 µM, first compound 0.0316 µM) 87.3%; (second compound 0.003 µM, first compound 0.1 µM) 92.8%; (second compound 0.003 µM, first compound 0.316 µM) 91.8%; (second compound 0.003 µM, first compound 1 µM) 92.7%; (second compound 0.003 µM, first compound 3.16 µM) 109%; (second compound 0.003 µM, first compound 10 µM) 71%. The viability, T/C (second compound 0.00949 µM, first compound 0.0316 µM) was 95.7%; the viability, T/C (second compound 0.00949 µM, first compound 0.1 µM) was 80.8%; the viability, T/C (second compound 0.00949 µM, first compound 0.316 µM) was 85.2%; the viability, T/C (second compound 0.00949 µM, first compound 1 µM) was 78.3%; the viability, T/C (second compound 0.00949 µM, first compound 3.16 µM) is 81.8%; the viability, T/C (second compound 0.00949 µM, first compound 10 µM) is 52%. The viability, T/C by setting is: (second compound 0.03 µM, first compound 0.0316 µM) 62.4%; (second compound 0.03 µM, first compound 0.1 µM) 71.5%; (second compound 0.03 µM, first compound 0.316 µM) 59.1%; (second compound 0.03 µM, first compound 1 µM) 57.1%; (second compound 0.03 µM, first compound 3.16 µM) 59.8%; (second compound 0.03 µM, first compound 10 µM) 32.7%. For the same molecule, the viability, T/C is, setting by setting: (second compound 0.0949 µM, first compound 0.0316 µM) 44.2%; (second compound 0.0949 µM, first compound 0.1 µM) 42.1%; (second compound 0.0949 µM, first compound 0.316 µM) 50.3%; (second compound 0.0949 µM, first compound 1 µM) 50.8%; (second compound 0.0949 µM, first compound 3.16 µM) 50.9%; (second compound 0.0949 µM, first compound 10 µM) 25.6%. Besides, the viability, T/C was 40.5% (second compound 0.3 µM, first compound 0.0316 µM); 42% (second compound 0.3 µM, first compound 0.1 µM); 41.2% (second compound 0.3 µM, first compound 0.316 µM); 36.5% (second compound 0.3 µM, first compound 1 µM); 44.2% (second compound 0.3 µM, first compound 3.16 µM); 25.2% (second compound 0.3 µM, first compound 10 µM).
Consider `NC1c2ccccc2OC12CCN(c1cnc3c(N4CCCc5ncccc54)n[nH]c3n1)CC2` (stereo not drawn), for which the viability, T/C is, setting by setting: (compound 0.0316 µM) 78.6% [middle of 4 runs]; (compound 0.1 µM) 64.9% [middle of 4 runs]; (compound 0.316 µM) 64.5% [middle of 4 runs]; (compound 1 µM) 55.7% [middle of 4 runs]; (compound 3.16 µM) 49.4% [middle of 4 runs]; (compound 10 µM) 43.5% [middle of 4 runs].

As usually defined, the IC50 is the concentration that gives 50% inhibition. The viability, T/C is the ratio of treated to control.
